According to patent US20160025704A1, “METHODS FOR IDENTIFYING NEUROPROTECTIVE PKC ACTIVATORS” (priority 2013, published 2016):

Columns and labels:
5XFAD mice = test: Synaptic loss in hippocampal CA1 area of 5XFAD mice; format: in vivo
Method: Protocol: DCPLA (20 mg/m^2, tail vein injection) was administered to 2-month old 5XFAD mice twice a week. At five months old, hippocampal slices from the brains of the mice were processed for immunohistochemistry and confocal microscopy analysis. Results are shown for analysis of spinophilin density (A, B), synaptophysin density (A, D) not caused by axonal bouton (synaptophysin granules) (C) and neuronal loss (E, F). […] Non-treated groups (wild-type and transgenic (Tg) mice) received the same vehicle volumes, mechanism of delivery, and frequency of administration as the treated groups.

PKC-α = biological target: T1, PKC-α (Mus musculus, UniProt P20444); test: PKC-α translocation by bryostatin in mouse brain (Western blot); format: in vivo; conditions: 30 and 120 minutes after administration
T1 construct: The effect of bryostatin on brain PKC translocation; from tissue; host or cells: brain of C57BL/6 mice
Method: Protocol: Male C57BL/6M mice (15-20 g, Charles River) were acclimatized for 7-8 days in a non-enriched environment, three mice per cage. Bryostatin (Tocris) was dissolved in DMSO, diluted into 0.9% saline, and injected into the tail vein at doses of 10 and 15 μg/m2. After a fixed period, the mice were anesthetized with CO2 and the brain was frozen on dry ice. Blood was mixed with 0.2 ml 1 mM EDTA in PBS, centrifuged at 100 g for 30 min, and plasma was frozen on dry ice.
Activation and translocation of PKC-ε were measured by Western blotting after subcellular fractionation into cytosol and particulate fractions. Homogenates were centrifuged at 100,000×g for 20 min and cytosolic and particulate fractions were separated on 4-20% Tris-glycine SDS polyacrylamide gels, blotted onto nitrocellulose, and probed with isozyme specific antibodies. The blots were photographed in a GE ImageQuant at 16 bits/pixel and analyzed by vertical strip densitometry using Imal Unix software.

Primary human neurons = test: Synaptogenicity in primary human neurons; format: cell-based; conditions: 0.27 nM
Method: Protocol: Primary human neurons were treated with either DCPLA-methyl ester (100 nM) or bryostatin-1 (0.27 nM).

human neprilysin = test: Membrane localization of neprilysin in SH+hNEP cells (biotinylation, Western blot); format: cell-based; conditions: 1 nM
Method: Protocols: SHSYSY cells overexpressing human neprilysin (SH+hNEP cells) were incubated with 1 μM oligomeric Aβ(1-42) for 4 hours in the absence or presence of bryostatin (Bryo, 1 nM). Some cells were pre-treated with Ro 32-0432 (Ro, 2 μM, a PKC inhibitor) for 30 min and then treated with Bryo. Cell surface-located proteins were then biotinylated and extracted using streptavidin beads, followed by immunoprecipitation using a neprilysin antibody Immunoprecipitates were subjected to Western blot analysis using neprilysin antibody (Mean+SEM of three independent experiments, **P<0.01, Aβ compared with untreated; #P<0.01, Ro+Bryo compared with Bryo). Results are shown below in FIG. 17.
Protocol: After SH+hNEP cells were untreated or treated with bryostatin (Bryo, 1 nM), or pre-treated with PKC inhibitor Ro 32-0432 (Ro, 2 μM) for 30 min and then treated with Bryo for 1 hour, cell surface located proteins were biotinylated and pulled down using streptavidin beads, followed by immunoprecipitation using a neprilysin antibody. […] Cells were then lysed and neprilysin activity was measured. […] Further incubation with leucine aminopeptidases released free 4-methoxy-2-naphthylamide that was measured fluorometrically at an emission of 425 nm. […]

monomeric Aβ(1-42) = test: Aβ peptide degradation by SH+hNEP cells; format: cell-based, human; conditions: 1 nM, 2.5 μg monomeric Aβ(1-42), 4 hours
Method: Protocol: Intact SH+hNEP cells were incubated with 2.5 μg of monomeric Aβ(1-42) for 4 hours in the absence or presence of bryostatin (Bryo, 1 nM). Some cells were cotreated with phosphoramidon (PA, 10 μM, a specific neprilysin inhibitor), Ro 32-0432 (Ro, 2 μM, a PKC inhibitor), or PA+Ro in the presence of bryostatin (1 nM) for 4 hours. Aβ peptide was then precipitated from the reactions by 20% trichloroacetic acid and immunoblotted with use of Aβ peptide 1-16 antibody (6E10). Arrow indicates the size of monomeric Aβ peptide (FIG. 18), which is around 4 kDa. Densitometry measurements of developed protein bands on Western blots were made and assigned as relative expression change (Mean+SEM of three independent experiments, **P<0.01, Bryo compared with untreated; #P<0.01, PA, Ro, or PA+Ro compared with Bryo.).

cerebral ischemia rats = test: Spatial learning, memory and visible platform test after cerebral ischemia; format: in vivo; conditions: 15 μg/m2 tail vein
Method: Protocol: Bryostatin-1 (15 μg/m2) was administered through a tail vein (2 doses/week, for 10 doses), starting 24 hours after the end of the ischemic (2-VO)/hypoxic event. The ability of the rats in spatial learning (2 trials/day for 4 days) and memory (a probe test of 1 min, 24 hours after the last trial) was evaluated, with the first training started 9 days after the last dose of bryostatin-1. […] (Bry—bryostatin-1; Isch—cerebral ischemia; NS—not significant) (*, P<0.05).

[1] = system: fragile X transgenic mice; test: Synapses in fragile X transgenic mice; format: in vivo; conditions: 25 μg/kg body weight intraperitoneal twice a week for 3 months
Method: Protocol: Bryostatin (25 μg/kg body weight, intraperitoneal injection) was administered to 2 month old fragile X transgenic mice twice a week for 3 months. […] Non-treated groups (WC and TC) received the same vehicle volumes, mechanism of delivery, and frequency of administration as the treated groups.

GSK-3β = test: Phosphorylation of GSK-3β (Ser9) in hippocampus (Western Blot); format: in vivo, mice; conditions: 20 μg/m2 i.v., 2 doses/wk for 13 wk
sAPP-α [2] = test: sAPP-α secretion in an Alzheimer's disease cell line; format: cell-based, human; conditions: AD cell line
Method: Protocol: An Alzheimer's disease cell line was incubated with bryostatin (0.1 nM), Benzolactam (0.1 nM or 1.0 μM), DMSO, pre-treated with staurosporin (100 nM) plus bryostatin (0.1 nM) for three hours. […] The graph units are relative to the vehicle, DMSO, alone (1).

sAPP-α [3] = test: sAPP-α secretion in control cell lines; format: cell-based, human; conditions: 0.1 nM
[4] = postischemic/hypoxic treatment; Sun and Alkon 2008; cited from earlier work

SMILES	mushroom spine shape dendritic spines and synapses (5XFAD mice; 20 mg/m^2 tail vein twice a week from 2 months old, analysis at five months)	synaptic loss in hippocampal CA1 area (5XFAD mice; 5XFAD mice at 5 months old (FIG. 20))	PKC-α translocation in mouse brain (PKC-α)	co-localized staining of PSD-95 and synaptophysin in puncta (number of synapses) (Primary human neurons; 30 days)	survival, neuritic branching and connections (Primary human neurons; 40 days)	membrane localization of neprilysin protein inhibited by Aβ (human neprilysin; 1 μM oligomeric Aβ(1-42), 4 hours)	neprilysin membrane localization (human neprilysin; 1 hour, without Aβ)	Aβ peptide degradation (monomeric Aβ(1-42))	sensorimotor ability (visible platform test) (cerebral ischemia rats; 2 doses/week for 10 doses (FIG. 23))	learning experience and memory after cerebral ischemia (cerebral ischemia rats; 2 doses/week for 10 doses, training started 9 days after last dose (FIG. 23))	losses of postsynaptic dendritic spines [1]	losses of presynaptic vesicles within presynaptic axonal boutons [1]	losses of synapses [1]	phosphorylation of GSK-3β (Ser9) in the hippocampus of fragile X mice (GSK-3β)	sAPP-α secretion at lower concentration (sAPP-α [2]; 0.01 nM, time course)	amount of sAPP-α in the medium (sAPP-α [2]; 0.1 nM, 3 h incubation, relative to DMSO)	incubation time at which secretion is near maximal (sAPP-α [2]; 0.1 nM, time course) [min]	potency in sAPP-α secretion compared with BL (sAPP-α [2]; both at 0.1 nM)	sAPP-α secretion in two control cell lines (sAPP-α [3])	ischemia-induced deficits in synaptogenesis, neurotrophic activity, and spatial learning and memory [4]
CCCCCC1CC1CC1CC1CCCCCCCC(=O)O (centres unmarked) [DCPLA, 8-[2-(2-pentylcyclopropyl)methyl]-cyclopropaneoctanoic acid]	protected the decrease in mushroom spine shape dendritic spines and synapses	prevents synaptic loss																		
CCC/C=C/C=C/C(=O)O[C@H]1/C(=C/C(=O)OC)C[C@H]2C[C@H]([C@@H](C)O)OC(=O)C[C@H](O)C[C@@H]3C[C@H](OC(C)=O)C(C)(C)[C@](O)(C[C@@H]4C/C(=C/C(=O)OC)C[C@H](/C=C/C(C)(C)[C@]1(O)O2)O4)O3 [Bryostatin, bryostatin-1]			translocation was only observed by PKC-ε	an increase in co-localized staining of PSD-95 and synaptophysin in puncta	improved survival with increased neuritic branching and connections	recovers membrane localization of neprilysin protein inhibited by Aβ	enhances neprilysin membrane localization	induces Aβ peptide degradation through neprilysin activation	but not sensorimotor ability	rescues learning experience and memory	rescued the losses of	rescued the losses of	rescued the losses of synapses	increases phosphorylation of GSK-3β	much slower but had about the same effect on secretion after 120 min of incubation	dramatically enhanced the amount of sAPP-α in the medium	160	more potent than another PKC activator, BL	effective in enhancing secretion in two control cell lines, although to a lesser extent than in the AD cell line	effectively rescued ischemia-induced deficits in synaptogenesis, neurotrophic activity, and spatial learning and memory
